# Data: patent publication US20150031102A1, “METHODS AND COMPOSITIONS FOR ENHANCED PRODUCTION OF BUTANOL BY CLOSTRIDIA” (Butrolix LLC, priority 2012, published 2015)
# Experiments:
# [1] = system: C. beijerinckii NCIMB 8052; assay: Sequential batch cultures of C. beijerinckii NCIMB 8052 grown at 30° C. in YEPG (growth OD600, final pH, ceric ion reactive compounds); type: cell-based, Clostridium beijerinckii
# Experimental: (§1) Clostridium acetobutylicum ATCC 824 and C. beijerinckii NCIMB 8052 are available from several commercial microbial culture collections including the American Type Culture Collection (ATCC), Manassas, Va., USA. The strain grown at 30 C or 37 C in YE broth, which contained, per liter: 5.0 g yeast extract, 2.5 g casamino acids, 1.0 g L-asparagine, 0.5 g cysteine·HCl, 56 mg K2HPO4, 56 mg KH2PO4, 82 mg anhydrous MgSO4, 8 mg FeSO4.H2O, 6 mg MnSO4.H2O and 10 g glucose. Alternatively, strains were grown in YEPG broth, which was identical to YE expect that K2HPO4 and KH2PO4 were increased to 145 mg/L each and glucose was increased to 60 g/L. The pH of the media was adjusted to 7.2 using 45% KOH prior to sterilization by autoclaving. Media were solidified by addition of 1.5% Bacteriological Agar, Acumedia Manufacturers, Inc., Lansing, Mich. All cultures were grown in anaerobic conditions using the AnaeroPack System, Mitsubishi Gas Chemical Co., Inc., Japan, and GasPak EZ Gas Generating Sachets, Becton, Dickinson and Co., Sparks, Md. Spore stocks were kept at room temperature on agar-solidified media and were activated by suspending spores in 0.5 mL to 1.0 mL of medium followed by heating for 10 min at 80 C before inoculation into growth medium.
# (§2) Growth of bacterial cultures was measured spectrophotometrically using optical density at 600 nm and pH of cell-free culture supernatants was measured using a hand-held Shindengen ISFET pH Meter KS501, Shendengen Electric Manufacturing Co., Ltd., Bannockburn, Ill.
# (§3) Total alcohols in cell-free culture supernatants were measured using a modification of a colorimetric method based on ceric ammonium nitrate (Reid and Truelove, 1952). The ceric ion reagent was prepared by adding 1.3 mL of concentrated nitric acid to 40 mL of distilled water, then 10.96 g of ceric ammonium nitrate was dissolved in the dilute nitric acid solution and the solution was brought to a final volume of 50 mL. For the assay, […] of butanol standard or culture supernatant was mixed with […] distilled water in a disposable plastic cuvette followed by addition of […] of the ceric ion reagent. The sample was mixed by inverting the cuvette six times then exactly two minutes later the optical density at 500 nm wavelength was measured. The concentration of total alcohols was determined by comparison with a standard curve prepared by using butanol diluted in distilled water.
# Spores of C. beijerinckii NCIMB 8052 were germinated and grown overnight at 30 C under anaerobic conditions in YEPG medium. After about 24 h of growth, […] of the culture was transferred (transfer 1) to each of four flasks that contained 10 mL of YEPG and either had no treatment or were treated with peptide SEQ ID NO: 145 (see Table 8) at 1 nM, 10 nM or 50 nM. Thereafter, […] of each culture was transferred, at the same time, every 24-48 h to 10 mL of fresh YEPG that contained the same peptide treatment or no treatment. Each culture was stopped after 96 hours of incubation and optical density, pH and ceric ion reactive chemicals were measured. Sequential batch culturing was continued through 6 transfers at which point all cultures appeared to be growing to the same extent (Table 12 and FIG. 4).
# [2] = system: C. beijerinckii NCIMB 8052; assay: Germination and sequential batch cultures of C. beijerinckii NCIMB 8052 grown at 37° C. (growth OD600, final pH, ceric ion reactive compounds); type: cell-based, Clostridium beijerinckii
# Experimental: as §1, §2, §3
# Spores of C. beijerinckii NCIMB 8052 were germinated and grown overnight at 37 C under anaerobic conditions in YEPG medium that either contained 50 nM of peptide SEQ ID NO: 145 or no added peptide. After about 24 h of growth, […] of the untreated culture was transferred (transfer 1) to each of two flasks that contained 10 mL of YEPG with either no treatment or with 50 nM peptide SEQ ID NO: 145. At the same time, 10 μL of the culture that was germinated in the presence of peptide SEQ ID NO: 145 was also transferred to 10 mL of YEPG that contained 50 nM of peptide SEQ ID NO: 145. Thereafter, […] of each culture was transferred, at the same time, every 24-48 h to 10 mL of fresh YEPG that contained the same peptide treatment or no treatment. Each culture was stopped after 72 hours of incubation and optical density, pH and ceric ion reactive chemicals were measured. Addition of peptide SEQ ID NO: 145 appeared to have no effect on endpoint measurements of the growth of C. beijerinckii NCIMB 8052 after germination or during sequential transfers of cultures at 37° C. (Table 18 and FIG. 10). All three cultures stopped growing at the second transfer. Likewise, there was no apparent effect on endpoint measurements of pH or ceric ion reactive compounds (Tables 19 and 20 and FIGS. 11 and 12).
# [3] = 10 nM, transfer 1, 96 h culture
# [4] = 10 nM, transfer 2, 96 h culture
# [5] = 10 nM, transfer 3, 96 h culture
# [6] = 10 nM, transfer 4, 96 h culture
# [7] = 10 nM, transfer 5, 96 h culture
# [8] = 10 nM, transfer 6, 96 h culture
# [9] = 50 nM, transfer 1, 96 h culture
# [10] = 50 nM, transfer 2, 96 h culture
# [11] = 50 nM, transfer 3, 96 h culture
# [12] = 50 nM, transfer 4, 96 h culture
# [13] = 50 nM, transfer 5, 96 h culture
# [14] = 50 nM, transfer 6, 96 h culture
# [15] = 50 nM added after germination, transfer 1, 72 h culture
# [16] = 50 nM added after germination, transfer 2, 72 h culture
# [17] = 50-50 (germinated and transferred in 50 nM), transfer 1, 72 h culture
# [18] = 50-50 (germinated and transferred in 50 nM), transfer 2, 72 h culture
# [19] = 50-50 (spores germinated in 50 nM peptide), transfer 0 (germinated culture), 72 h culture
substance,measurement,setting,value
IRLIT (Derived from Clostridium beijerinckii SEQ ID NO: 141) [peptide SEQ ID NO: 145],Culture degeneration in terms of production of total alcohols,[1],transiently increase culture degeneration
same,Final pH,"[1]; 1 nM, transfer 1, 96 h culture",5.3
same,Optical density at 600 nm,"[1]; 1 nM, transfer 1, 96 h culture",2.086
same,Optical density of ceric ion reactive compounds measured at 500 nm,"[1]; 1 nM, transfer 1, 96 h culture",0.065
same,Final pH,"[1]; 1 nM, transfer 2, 96 h culture",5.3
same,Optical density at 600 nm,"[1]; 1 nM, transfer 2, 96 h culture",2.086
same,Optical density of ceric ion reactive compounds measured at 500 nm,"[1]; 1 nM, transfer 2, 96 h culture",0.032
same,Final pH,"[1]; 1 nM, transfer 3, 96 h culture",5.1
same,Optical density at 600 nm,"[1]; 1 nM, transfer 3, 96 h culture",2.106
same,Optical density of ceric ion reactive compounds measured at 500 nm,"[1]; 1 nM, transfer 3, 96 h culture",0.054
same,Final pH,"[1]; 1 nM, transfer 4, 96 h culture",5.3
same,Optical density at 600 nm,"[1]; 1 nM, transfer 4, 96 h culture",2.115
same,Optical density of ceric ion reactive compounds measured at 500 nm,"[1]; 1 nM, transfer 4, 96 h culture",0.041
same,Final pH,"[1]; 1 nM, transfer 5, 96 h culture",5.3
same,Optical density at 600 nm,"[1]; 1 nM, transfer 5, 96 h culture",2.090
same,Optical density of ceric ion reactive compounds measured at 500 nm,"[1]; 1 nM, transfer 5, 96 h culture",0.061
same,Final pH,"[1]; 1 nM, transfer 6, 96 h culture",5.3
same,Optical density at 600 nm,"[1]; 1 nM, transfer 6, 96 h culture",2.075
same,Optical density of ceric ion reactive compounds measured at 500 nm,"[1]; 1 nM, transfer 6, 96 h culture",0.062
same,Final pH,[1]; [3],5.3
same,Optical density at 600 nm,[1]; [3],2.080
same,Optical density of ceric ion reactive compounds measured at 500 nm,[1]; [3],0.050
same,Final pH,[1]; [4],5.3
same,Optical density at 600 nm,[1]; [4],2.093
same,Optical density of ceric ion reactive compounds measured at 500 nm,[1]; [4],0.008
same,Final pH,[1]; [5],5.0
same,Optical density at 600 nm,[1]; [5],2.078
same,Optical density of ceric ion reactive compounds measured at 500 nm,[1]; [5],0.025
same,Final pH,[1]; [6],5.3
same,Optical density at 600 nm,[1]; [6],2.108
same,Optical density of ceric ion reactive compounds measured at 500 nm,[1]; [6],0.047
same,Final pH,[1]; [7],5.4
same,Optical density at 600 nm,[1]; [7],2.069
same,Optical density of ceric ion reactive compounds measured at 500 nm,[1]; [7],0.065
same,Final pH,[1]; [8],5.3
same,Optical density at 600 nm,[1]; [8],2.062
same,Optical density of ceric ion reactive compounds measured at 500 nm,[1]; [8],0.055
same,Final pH,[1]; [9],5.4
same,Optical density at 600 nm,[1]; [9],2.102
same,Optical density of ceric ion reactive compounds measured at 500 nm,[1]; [9],0.060
same,Final pH,[1]; [10],5.3
same,Optical density at 600 nm,[1]; [10],2.023
same,Optical density of ceric ion reactive compounds measured at 500 nm,[1]; [10],0.023
same,Final pH,[1]; [11],5.2
same,Optical density at 600 nm,[1]; [11],1.936
same,Final pH,[1]; [12],5.3
same,Optical density at 600 nm,[1]; [12],2.061
same,Optical density of ceric ion reactive compounds measured at 500 nm,[1]; [12],0.039
same,Final pH,[1]; [13],5.3
same,Optical density at 600 nm,[1]; [13],2.120
same,Optical density of ceric ion reactive compounds measured at 500 nm,[1]; [13],0.051
same,Final pH,[1]; [14],5.3
same,Optical density at 600 nm,[1]; [14],2.046
same,Optical density of ceric ion reactive compounds measured at 500 nm,[1]; [14],0.059
same,Growth of treated cultures during 96 h of incubation,"[1]; 1, 10, 50 nM, dose dependent manner, data not shown",slow the growth
same,Final pH,"[1]; all cultures (0, 1, 10, 50 nM), after the third transfer",~5.3
same,Number of times that cultures could be transferred,"[1]; through six culture transfers, in comparison with an untreated culture",did not affect
same,Effect on germination and growth (visual observations through the course of growth),[2]; 50 nM,repressive effect on germination and growth
same,Final pH,[2]; [15],4.1
same,Optical density at 600 nm,[2]; [15],1.313
same,Optical density of ceric ion reactive compounds measured at 500 nm,[2]; [15],−0.026
same,Final pH,[2]; [16],6.5
same,Optical density at 600 nm,[2]; [16],0.011
same,Optical density of ceric ion reactive compounds measured at 500 nm,[2]; [16],0.006
same,Effect on endpoint measurements of growth,"[2]; 50 nM, after germination or during sequential transfers",no effect
same,Final pH,[2]; [17],4.1
same,Optical density at 600 nm,[2]; [17],1.420
same,Optical density of ceric ion reactive compounds measured at 500 nm,[2]; [17],−0.038
same,Final pH,[2]; [18],6.6
same,Optical density at 600 nm,[2]; [18],0.011
same,Optical density of ceric ion reactive compounds measured at 500 nm,[2]; [18],0.002
same,Final pH,[2]; [19],4.1
same,Optical density at 600 nm,[2]; [19],1.158
same,Optical density of ceric ion reactive compounds measured at 500 nm,[2]; [19],−0.017
